According to patent US10653698B2, “Methods of improving myocardial performance in Fontan patients using udenafil compositions” (priority 2014, dated 2020):

Columns and labels:
[1] = tested on: adolescents with single ventricle physiology after Fontan palliation; test: Vascular function testing (EndoPAT pulse amplitude tonometry, lnRHI and other EndoPAT indices); assay type: in vivo, human; settings: for Natural Log of Reactive Hyperemia Index, Baseline measurement: day 1; for Natural Log of Reactive Hyperemia Index, Follow-up measurement: post-medication, day 5
Text: Pulse amplitude tonometry (PAT), a FDA-approved method for assessing vascular function, is increasingly being used as an alternative measure of endothelium-dependent dilation in response to reactive hyperemia and flow-mediated dilation (FMD). The PAT device records digital pulse wave amplitude (PWA) using fingertip plethysmography. PWA can be measured continuously during three phases: a quiet baseline period, 5-min forearm occlusion, and reactive hyperemia following cuff release. Unlike FMD, PAT testing is not dependent upon a highly skilled technician and post-test analysis is largely automated. Most importantly, at least one longitudinal study has shown that PAT measures of endothelial function predict CVD events over a 6-year follow-up period. These significant advantages may make PAT testing suitable for clinical practice if prognostic significance and reliability can be verified.
The primary outcome of vascular function was determined according to an endothelial pulse amplitude tonometry (PAT) index as determined by the EndoPAT® device (Itamar Medical, Caesarea, Israel).
Table 16 summarizes the results for the key outcome from the vascular function testing—natural log of Reactive Hyperemia Index (lnRHI) by treatment group. Out of the 30 subjects enrolled in the treatment arms of the trial, 27 subjects had paired measurements with an acceptable quality (with QC score equal to 3 (the best) or 2). The structure of the table is similar to the one for exercise variables.
Table 17 reports change scores only for secondary EndoPAT outcomes (RHI, Framingham RHI etc; top panel) and other EndoPAT indices.

[2] = Pharmacokinetic testing, non-compartmental analysis of plasma concentrations; assay type: in vivo, human
Description: NONMEM version 7.2, R, PDxPOP® 5, Xpose, and Phoenix WinNonlin was used for the pharmacokinetic analysis.
Pharmacokinetic analysis was performed on Fontan patients receiving udenafil. […] Plasma concentrations were determined at various time points and non-compartmental analysis was performed in patients and stratified by dosing regimens.

[3] = cited from earlier work
[4] = 87.5 mg q12 h and 125 mg q24 h cohorts compared to 37.5 mg q12 h or q24 h cohorts

CCCOc1ccc(S(=O)(=O)NCCC2CCCN2C)cc1-c1nc2c(CCC)nn(C)c2c(=O)[nH]1 (stereo not drawn) [udenafil]
Natural Log of Reactive Hyperemia Index, Difference, FU − BL ([1]; 37.5 mg daily): 0.03 ± 0.47 | AUC2max_o: Area under the curve to Max-Occlusion (ratio to baseline), FU − BL ([1]; 37.5 mg daily, N 6): −0.23 ± 2.74 | AUC2max_oc: Area under the curve to Max-Occlusion/Control, FU − BL ([1]; 37.5 mg daily, N 6): −0.93 ± 4.37 | AUCall_o: Area under the curve all-Occlusion (ratio to baseline), FU − BL ([1]; 37.5 mg daily, N 6): −0.01 ± 2.73 | AUCall_oc: Area under the curve all-Occlusion/Control, FU − BL ([1]; 37.5 mg daily, N 6): −1.34 ± 6.42 | Avg2Max_o: average upto max-Occlusion (ratio to baseline), FU − BL ([1]; 37.5 mg daily, N 6): −0.12 ± 0.28 | Avg2Max_oc: average up to max-Occlusion/Control, FU − BL ([1]; 37.5 mg daily, N 6): −0.35 ± 1.01 | Avgall_o: average all-Occlusion (ratio to baseline), FU − BL ([1]; 37.5 mg daily, N 6): 0.02 ± 0.27 | Avgall_oc: average all -Occlusion/Control, FU − BL ([1]; 37.5 mg daily, N 6): −0.10 ± 0.66 | Framingham RHI, FU − BL ([1]; 37.5 mg daily, N 6): −0.00 ± 0.58 | Reactive Hyperemia Index, FU − BL ([1]; 37.5 mg daily, N 6): 0.03 ± 0.84 | Natural Log of Reactive Hyperemia Index, Baseline measurement ([1]; 37.5 mg daily): 0.48 ± 0.31 | Natural Log of Reactive Hyperemia Index, Follow-up measurement ([1]; 37.5 mg daily): 0.51 ± 0.26 | Natural Log of Reactive Hyperemia Index, Difference, FU − BL ([1]; 37.5 mg twice daily): −0.07 ± 0.17 | AUC2max_o: Area under the curve to Max-Occlusion (ratio to baseline), FU − BL ([1]; 37.5 mg twice daily, N 6): 0.09 ± 1.45 | AUC2max_oc: Area under the curve to Max-Occlusion/Control, FU − BL ([1]; 37.5 mg twice daily, N 6): −1.19 ± 1.84 | AUCall_o: Area under the curve all-Occlusion (ratio to baseline), FU − BL ([1]; 37.5 mg twice daily, N 6): −0.69 ± 2.17 | AUCall_oc: Area under the curve all-Occlusion/Control, FU − BL ([1]; 37.5 mg twice daily, N 6): −1.19 ± 2.00 | Avg2Max_o: average upto max-Occlusion (ratio to baseline), FU − BL ([1]; 37.5 mg twice daily, N 6): 0.15 ± 0.19 | Avg2Max_oc: average up to max-Occlusion/Control, FU − BL ([1]; 37.5 mg twice daily, N 6): −0.33 ± 0.26 | Avgall_o: average all-Occlusion (ratio to baseline), FU − BL ([1]; 37.5 mg twice daily, N 6): −0.08 ± 0.24 | Avgall_oc: average all -Occlusion/Control, FU − BL ([1]; 37.5 mg twice daily, N 6): −0.13 ± 0.22 | Framingham RHI, FU − BL ([1]; 37.5 mg twice daily, N 6): −0.17 ± 0.19 | Reactive Hyperemia Index, FU − BL ([1]; 37.5 mg twice daily, N 6): −0.12 ± 0.30 | Natural Log of Reactive Hyperemia Index, Baseline measurement ([1]; 37.5 mg twice daily): 0.60 ± 0.30 | Natural Log of Reactive Hyperemia Index, Follow-up measurement ([1]; 37.5 mg twice daily): 0.53 ± 0.29 | Natural Log of Reactive Hyperemia Index, Difference, FU − BL ([1]; 87.5 mg daily): 0.07 ± 0.22 | AUC2max_o: Area under the curve to Max-Occlusion (ratio to baseline), FU − BL ([1]; 87.5 mg daily, N 5): −1.26 ± 4.89 | AUC2max_oc: Area under the curve to Max-Occlusion/Control, FU − BL ([1]; 87.5 mg daily, N 5): 3.03 ± 2.49 | AUCall_o: Area under the curve all-Occlusion (ratio to baseline), FU − BL ([1]; 87.5 mg daily, N 5): 1.66 ± 5.96 | AUCall_oc: Area under the curve all-Occlusion/Control, FU − BL ([1]; 87.5 mg daily, N 5): 1.88 ± 3.25 | Avg2Max_o: average upto max-Occlusion (ratio to baseline), FU − BL ([1]; 87.5 mg daily, N 5): 0.10 ± 0.69 | Avg2Max_oc: average up to max-Occlusion/Control, FU − BL ([1]; 87.5 mg daily, N 5): 0.17 ± 0.43 | Avgall_o: average all-Occlusion (ratio to baseline), FU − BL ([1]; 87.5 mg daily, N 5): 0.14 ± 0.67 | Avgall_oc: average all -Occlusion/Control, FU − BL ([1]; 87.5 mg daily, N 5): 0.16 ± 0.36 | Framingham RHI, FU − BL ([1]; 87.5 mg daily, N 5): 0.04 ± 0.36 | Reactive Hyperemia Index, FU − BL ([1]; 87.5 mg daily, N 5): 0.12 ± 0.34 | Natural Log of Reactive Hyperemia Index, Baseline measurement ([1]; 87.5 mg daily): 0.41 ± 0.25 | Natural Log of Reactive Hyperemia Index, Follow-up measurement ([1]; 87.5 mg daily): 0.45 ± 0.31 | Natural Log of Reactive Hyperemia Index, Difference, FU − BL ([1]; 87.5 mg twice daily): −0.03 ± 0.20 | AUC2max_o: Area under the curve to Max-Occlusion (ratio to baseline), FU − BL ([1]; 87.5 mg twice daily, N 4): −0.51 ± 1.64 | AUC2max_oc: Area under the curve to Max-Occlusion/Control, FU − BL ([1]; 87.5 mg twice daily, N 4): 0.16 ± 1.08 | AUCall_o: Area under the curve all-Occlusion (ratio to baseline), FU − BL ([1]; 87.5 mg twice daily, N 4): 0.60 ± 2.95 | AUCall_oc: Area under the curve all-Occlusion/Control, FU − BL ([1]; 87.5 mg twice daily, N 4): 0.17 ± 4.30 | Avg2Max_o: average upto max-Occlusion (ratio to baseline), FU − BL ([1]; 87.5 mg twice daily, N 4): 0.03 ± 0.36 | Avg2Max_oc: average up to max-Occlusion/Control, FU − BL ([1]; 87.5 mg twice daily, N 4): 0.24 ± 0.23 | Avgall_o: average all-Occlusion (ratio to baseline), FU − BL ([1]; 87.5 mg twice daily, N 4): 0.09 ± 0.33 | Avgall_oc: average all -Occlusion/Control, FU − BL ([1]; 87.5 mg twice daily, N 4): 0.05 ± 0.45 | Framingham RHI, FU − BL ([1]; 87.5 mg twice daily, N 4): 0.00 ± 0.20 | Reactive Hyperemia Index, FU − BL ([1]; 87.5 mg twice daily, N 4): 0.01 ± 0.38 | Natural Log of Reactive Hyperemia Index, Baseline measurement ([1]; 87.5 mg twice daily): 0.49 ± 0.12 | Natural Log of Reactive Hyperemia Index, Follow-up measurement ([1]; 87.5 mg twice daily): 0.40 ± 0.29 | Natural Log of Reactive Hyperemia Index, Difference, FU − BL ([1]; 125 mg daily): −0.10 ± 0.38 | AUC2max_o: Area under the curve to Max-Occlusion (ratio to baseline), FU − BL ([1]; 125 mg daily, N 6): 0.37 ± 2.71 | AUC2max_oc: Area under the curve to Max-Occlusion/Control, FU − BL ([1]; 125 mg daily, N 6): 1.80 ± 1.18 | AUCall_o: Area under the curve all-Occlusion (ratio to baseline), FU − BL ([1]; 125 mg daily, N 6): −0.28 ± 3.98 | AUCall_oc: Area under the curve all-Occlusion/Control, FU − BL ([1]; 125 mg daily, N 6): −1.84 ± 7.21 | Avg2Max_o: average upto max-Occlusion (ratio to baseline), FU − BL ([1]; 125 mg daily, N 6): 0.07 ± 0.86 | Avg2Max_oc: average up to max-Occlusion/Control, FU − BL ([1]; 125 mg daily, N 6): −0.32 ± 1.28 | Avgall_o: average all-Occlusion (ratio to baseline), FU − BL ([1]; 125 mg daily, N 6): −0.03 ± 0.49 | Avgall_oc: average all -Occlusion/Control, FU − BL ([1]; 125 mg daily, N 6): −0.20 ± 0.84 | Framingham RHI, FU − BL ([1]; 125 mg daily, N 6): −0.13 ± 0.51 | Reactive Hyperemia Index, FU − BL ([1]; 125 mg daily, N 6): −0.21 ± 0.78 | Natural Log of Reactive Hyperemia Index, Baseline measurement ([1]; 125 mg daily): 0.63 ± 0.37 | Natural Log of Reactive Hyperemia Index, Follow-up measurement ([1]; 125 mg daily): 0.52 ± 0.34 | Natural Log of Reactive Hyperemia Index, Difference, FU − BL ([1]; All subjects (treatment arms)): −0.02 ± 0.30 | Natural Log of Reactive Hyperemia Index, Baseline measurement ([1]; All subjects (treatment arms)): 0.52 ± 0.28 | Natural Log of Reactive Hyperemia Index, Follow-up measurement ([1]; All subjects (treatment arms)): 0.49 ± 0.28 | AUC2max_o: Area under the curve to Max-Occlusion (ratio to baseline), FU − BL ([1]; All subjects, N 27): −0.26 ± 2.75 | AUC2max_oc: Area under the curve to Max-Occlusion/Control, FU − BL ([1]; All subjects, N 27): 0.51 ± 2.91 | AUCall_o: Area under the curve all-Occlusion (ratio to baseline), FU − BL ([1]; All subjects, N 27): 0.18 ± 3.54 | AUCall_oc: Area under the curve all-Occlusion/Control, FU − BL ([1]; All subjects, N 27): −0.60 ± 4.93 | Avg2Max_o: average upto max-Occlusion (ratio to baseline), FU − BL ([1]; All subjects, N 27): 0.04 ± 0.51 | Avg2Max_oc: average up to max-Occlusion/Control, FU − BL ([1]; All subjects, N 27): −0.16 ± 0.79 | Avgall_o: average all-Occlusion (ratio to baseline), FU − BL ([1]; All subjects, N 27): 0.02 ± 0.40 | Avgall_oc: average all -Occlusion/Control, FU − BL ([1]; All subjects, N 27): −0.06 ± 0.54 | Framingham RHI, FU − BL ([1]; All subjects, N 27): −0.06 ± 0.39 | Reactive Hyperemia Index, FU − BL ([1]; All subjects, N 27): −0.04 ± 0.56 | Improvement in natural log of Reactive Hyperemia Index ([1]; some patients, baseline to day 5): ≤ 9.75% | AUCτ [2, 4]: significantly increased | Cmax [2, 4]: significantly increased | AUC0-24 ([2]; 87.5 mg q12 h cohort among all regimens tested): highest | Cmax ([2]; 87.5 mg q12 h cohort compared to its q24 h counterpart): increased | AUC0-24 ([2]; 125 mg q24 h cohort compared to 37.5 mg q24 h cohort): significantly increased | ke, T1/2, or Tmax ([2]; among all 5 tested dosing regimens): no statistically significant difference | CL/F or V/F ([2]; among dosing regimens, except between 37.5 mg q24 h and 87.5 mg q12 h): No significant difference | T1/2 ([3]; in vivo): 11 to 13 h | Tmax ([3]; in vivo): 1.0 to 1.5 h | half-life ([3]; in vivo): 7.3 to 12.1 h | time to steady state ([3]; multiple dosing, previous studies): 5 days
